The record followed here is patent publication US11136367B2, “Multi-level specific targeting of cancer cells” (Wake Forest University Health Sciences, priority 2010, dated 2021).

Series [1] concerns G48a GBM cells, which over-express IL-13Rα2. Briefly: Localization of biotin-conjugated proteins in G48a GBM cells. The class given is cell-based. The protocol:
(§1) 12,500 U-251 MG GBM cells were plated on coverslips per well in a 24-well plate. […] After the incubations, the cells were fixed with 4% paraformaldehyde (Ted Pella, Redding, Calif.) for 15 mins at 37° C. and washed with PBS 4× times. The cells were then permeabilized with 0.1% Triton-X-100/0.2% BSA-PBS for 10 min at RT. After permeabilization, the cells were washed 3 times with 1×PBS. After washings, Tyramide signal amplification kit (Invitrogen, Carlsbad, Calif.) using Alexa fluor 488 dyes and HR.P-streptavidin was carried out as per manufacturer's instructions. Topro-3 iodide (Invitrogen, Carlsbad, Calif.) was added at a concentration of 1:1000 dilution of the 1 mM stock to stain the cell nuclei. After the tyramide staining, wells were washed and mounted with gel mount (Biomeda, Foster City, Calif.) and observed with LSM 510 Zeiss Confocal Microscope (Cellular Imaging Core, Comprehensive Cancer Center, Wake Forest University) and the images processed using Zeiss LSM Image Browser (version 4.2).
We repeated the above experiments in another GBM cell line, G48a (13), which over-expresses IL-13Rα2. We obtained similar results as with the U-251 MG cells.

The subject of series [2] is IL-13Rα2 positive U-251 MG cells. In words: Localization of biotin-conjugated proteins, tyramide signal amplification, confocal microscopy. It counts as cell-based, Human. The protocol: Biotin-XX microscale protein labeling kit (Invitrogen, Carlsbad, Calif.) was used to label the proteins as per the manufacturer's instructions. A different molar ratio of 12, 8 or 4 biotin-dye to the proteins was used. The biotin-labeled proteins were run on a gel and a western blot carried out using streptavidin-HR.P (Pierce, Rockford, Ill.) to detect for biotin-labeled proteins. The number of Biotin molecules attached to the proteins was determined by the Biofluoreporter assay kit (Invitrogen) as per the manufacturer's guidelines.
as §1, with “After the tyramide staining, wells were washed and mounted with gel mount (Biomeda, Foster City, Calif.) and observed with LSM 510 Zeiss Confocal Microscope (Cellular Imaging Core, Comprehensive Cancer Center, Wake Forest University) and the images processed using Zeiss LSM Image Browser (version 4.2).” left out

The target in series [3] is T1, IL-13Rα2 receptor on GBM cells (U-251 MG) (Homo sapiens, UniProt Q14627).
T1 construct: endogenous in cells; host or cells: U-251 MG human glioblastoma cells (ATCC)
T1 sequence (Q14627 27-380): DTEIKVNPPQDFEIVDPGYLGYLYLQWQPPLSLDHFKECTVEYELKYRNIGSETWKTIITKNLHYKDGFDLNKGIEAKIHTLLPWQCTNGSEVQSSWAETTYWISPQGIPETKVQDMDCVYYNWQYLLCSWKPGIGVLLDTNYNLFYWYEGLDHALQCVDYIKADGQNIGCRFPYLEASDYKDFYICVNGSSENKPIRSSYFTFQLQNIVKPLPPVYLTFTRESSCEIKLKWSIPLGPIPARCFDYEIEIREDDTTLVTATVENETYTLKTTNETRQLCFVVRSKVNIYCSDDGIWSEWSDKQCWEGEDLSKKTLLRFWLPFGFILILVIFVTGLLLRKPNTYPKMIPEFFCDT
In words: Colorimetric MTS/PMS cell viability assay: neutralization of IL-13.E13K-PE38QQR cytotoxicity (competition for receptor). It counts as cell-based. The protocol: 1× 10^3 U-251 MG cells were plated per well in quadruplicates for each concentration to be tested. IL-13.E13K-PE38QQR is an IL-13Rα2 based cytotoxin against GBM (24). After 24 hours incubation at […] for the cells to attach, a fixed concentration (i.e. 1 μM) of the IL13.E13K-D2-NLS and other purified proteins were added and incubated at 37° C. for 1 hr. After 1 hr. incubation, increasing concentrations of the IL-13.E13K-PE38QQR ranging from 0.1 to 100 ng/ml was added and the plate was incubated for 48 hr. Cells treated with cyclohexamide and just the cytotoxins were used as controls. After 48 hr., cell viability was measured using the MTS [3-(4,5-dimethylthiazol-2-yl)-543-carboxymethoxyphenyl)-2-(4-sulfophenyl)-2H-tetrazolium]/PMS [phenazine methosulfate] dye (Promega, Madison, Wis.) as per the manufacturer's instructions. The absorbance from the assay was measured at 490 nm using the plate reader Spectra max 340 PC (Molecular Devices, Sunnyvale, Calif.) and data was plotted as percentage of control versus concentration of the toxin used.
To this end, we carried out a cell-viability assay in which these recombinant proteins bound to the IL-13Rα2 receptor and protected against cytotoxic action of IL-13.E13K-PE38QQR. […]

The subject of series [4] is LN229 cells, very low expressors of IL-13Rα2. Briefly: Localization of biotin-labeled proteins in LN229 cells. The class given is cell-based, Human. The settings on record: 24 hr. The method, then:
12,500 U-251 MG GBM cells were plated on coverslips per well in a 24-well plate. After 24 hr., 1 μM/well of biotin-labeled proteins was added onto the U-251 MG cells for 15 min, 4, 8 and 24 hr. After the incubations, the cells were fixed with 4% paraformaldehyde (Ted Pella, Redding, Calif.) for 15 mins at 37° C. and washed with PBS 4× times. The cells were then permeabilized with 0.1% Triton-X-100/0.2% BSA-PBS for 10 min at RT. After permeabilization, the cells were washed 3 times with 1×PBS. After washings, Tyramide signal amplification kit (Invitrogen, Carlsbad, Calif.) using Alexa fluor 488 dyes and HR.P-streptavidin was carried out as per manufacturer's instructions. Topro-3 iodide (Invitrogen, Carlsbad, Calif.) was added at a concentration of 1:1000 dilution of the 1 mM stock to stain the cell nuclei. After the tyramide staining, wells were washed and mounted with gel mount (Biomeda, Foster City, Calif.) and observed with LSM 510 Zeiss Confocal Microscope (Cellular Imaging Core, Comprehensive Cancer Center, Wake Forest University) and the images processed using Zeiss LSM Image Browser (version 4.2).
We carried out identical experiments with biotin-labeled IL-13.E13K-D2-NLS in LN229 cells, very low expressors of IL-13Rα2.

As to IL-13.E13K, the nuclear localization result in series [1] (any of the time-points) is “not found to have any nuclear localization”. Besides, the subcellular localization entry was “cytosolic/perinuclear localization” in series [1] (biotin label, 4, 8 and 24 hr.); “cell membrane binding” in series [1] (biotin label, 5 min); “demonstrate the results observed at 24 hr” in series [2] (biotin label, 8, 4 hr and 5 min, data not shown); “accumulated mainly in the peri-nuclear region” in series [2] (biotin label, 24 hr.). Also, the “protection against cytotoxic action of IL-13.E13K-PE38QQR (competition for IL-13Rα2)” value in series [3] (U-251 MG cells, 1 μM protein 1 hr before 0.1 to 100 ng/ml cytotoxin, 48 hr) is given as “blocked the action of the cytotoxin”. The “binding of biotin-conjugated proteins to IL-13Rα2 on GBM cells” value in series [3] (biotin-conjugated proteins) is listed as “bind to the IL-13Rα2”. The “cytosolic or perinuclear localization” value in series [4] is reported as “no cytosolic or perinuclear localization”.
